Data reported in ChEMBL document CHEMBL1130358, “DIARYLETHER INHIBITORS OF FARNESYL-PROTEIN TRANSFERASE” (Bioorg Med Chem Lett, 1997).
pIC50: −log10 of the molar value.

Columns and labels:
[1] = target: Protein farnesyltransferase (Bos taurus, UniProt P29702+P49355); assay: Inhibition of the Farnesyltransferase catalyzed incorporation of [3H]FPP into recombinant Ha-Ras by 50% in bovine brain at a concentration of ca. 1 nM.; format: tissue-based
[2] = system: Rat1; assay: 90% reduction in v-Ha-ras (Ras2B) transformed RAT1 cell colony size and number in soft agar assay; format: functional; conditions: Rattus norvegicus
[3] = system: Rat1; assay: 90% reduction in v-raf (Raf1a1) transformed RAT1 cell colony size and number in soft agar assay; format: functional; conditions: Rattus norvegicus
[4] = target: Geranylgeranyl transferase type I (Bos taurus, UniProt P29702+Q5EAD5); assay: Inhibition of Geranylgeranyl transferase type I, an enzyme that recognizes CaaX sequences containing leucine as the terminal residue.; format: protein-complex assay

| Compound | pIC50 [1] | IC90 [2] [µM] | IC90 [3] [µM] | pIC50 [4] |
| --- | --- | --- | --- | --- |
| N[C@@H](CS)CNc1ccc(Oc2cccc(CO)c2)cc1 | 6.47 | ~30 | 30 |  |
| N[C@@H](CS)C(=O)Nc1ccc(Oc2ccc(C(=O)O)cc2)cc1 | 4.41 |  |  |  |
| N[C@@H](CS)CNc1cccc(Oc2ccccc2)c1 | 5.64 |  |  |  |
| N[C@@H](CS)CNc1cccc(Oc2cccc(C(=O)O)c2)c1 | 6.60 | > 50 | > 50 | 5.24 |
| N[C@@H](CS)C(=O)Nc1cccc(Oc2cccc(C(=O)O)c2)c1 | 5.16 |  |  |  |
| N[C@@H](CS)CNc1ccc(Oc2ccc(C(=O)O)cc2)cc1 | 5.50 |  |  |  |
| N[C@@H](CS)CNc1ccc(Oc2ccccc2)cc1 | 6.34 | 10 | 10 | 5.30 |
| Cc1cccc(Oc2cccc(NC[C@@H](N)CS)c2)c1 | 6.48 |  |  |  |
| N[C@@H](CS)CNc1cccc(Oc2ccc(C(=O)O)cc2)c1 | 5.42 |  |  |  |
| Cc1cccc(Oc2ccc(NC[C@@H](N)CS)cc2)c1 | 6.21 | 10 | 10 |  |
| N[C@@H](CS)CNc1ccc(Oc2cccc(C(=O)O)c2)cc1 | 6.39 | > 50 | > 50 |  |

Next, values leading:

| pIC50 [1] | IC90 [2] [µM] | IC90 [3] [µM] | pIC50 [4] | Compound |
| --- | --- | --- | --- | --- |
| 4.80 |  |  |  | N[C@@H](CS)C(=O)Nc1ccc(Oc2cccc(C(=O)O)c2)cc1 |
| < 4.00 |  |  |  | N[C@@H](CS)C(=O)Nc1cccc(Oc2ccc(C(=O)O)cc2)c1 |
| 4.35 |  |  |  | COC(=O)c1cccc(Oc2cccc(NC(=O)[C@@H](N)CS)c2)c1 |
| < 4.00 |  |  |  | COC(=O)c1ccc(Oc2ccc(NC(=O)[C@@H](N)CS)cc2)cc1 |
| 6.19 | 10 | 10 | 5.64 | COC(=O)c1cccc(Oc2ccc(NC[C@@H](N)CS)cc2)c1 |
| 4.35 |  |  |  | COC(=O)c1cccc(Oc2ccc(NC(=O)[C@@H](N)CS)cc2)c1 |
| < 4.00 |  |  |  | COC(=O)c1ccc(Oc2cccc(NC(=O)[C@@H](N)CS)c2)cc1 |
